Each structure is given as a SMILES string.

The target of the test is T1, GLP-1R (Homo sapiens, UniProt P43220).
T1 construct: host or cells: GLP-1R CRE-bla CHO-K1 cells
T1 sequence (P43220 24-463): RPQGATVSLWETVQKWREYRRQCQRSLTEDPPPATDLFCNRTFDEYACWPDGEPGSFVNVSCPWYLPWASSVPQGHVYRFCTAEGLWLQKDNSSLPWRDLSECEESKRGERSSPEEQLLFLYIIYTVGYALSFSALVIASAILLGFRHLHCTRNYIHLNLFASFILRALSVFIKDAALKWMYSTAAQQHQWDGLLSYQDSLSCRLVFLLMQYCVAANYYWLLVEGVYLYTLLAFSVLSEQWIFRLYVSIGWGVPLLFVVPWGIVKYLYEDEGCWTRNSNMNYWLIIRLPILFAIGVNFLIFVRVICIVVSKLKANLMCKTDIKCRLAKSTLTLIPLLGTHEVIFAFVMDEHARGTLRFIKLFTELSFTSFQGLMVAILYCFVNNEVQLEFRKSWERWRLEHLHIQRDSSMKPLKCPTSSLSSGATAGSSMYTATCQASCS
T1 sequence (P01275 100-127 partner limits assumed): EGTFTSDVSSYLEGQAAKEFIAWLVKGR
The test is described as follows: EC20 GLP-1(9-36) PAM cAMP assay: dose response of compound in the presence of fixed concentration of GLP-1(9-36). In kind it is cell-based. Particulars: GLP-1R CRE-bla CHO-K1 cells, compound dose response with fixed concentration of GLP-1(9-36), read-out: EC20 GLP-1(9-36) PAM EC50. In outline: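 Positive allosteric modulation read as cAMP accumulation: compound titrations (12 points) combined with an EC20 level of GLP-1(9-36) on CHO-K1 GLP-1R CRE-bla cells, IBMX present, 30 min, 37 °C, pH 7.4 buffer. Luminescence converted to cAMP via standards; non-linear fit gave EC50 and Emax.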
For orientation: Changes in cAMP serve as a functional read-out for many G protein-coupled receptors.
As a reminder, the EC50 is the concentration needed to bring the measured effect to its halfway point. `CC(C)(C)c1ccc(C(=O)N[C@@H](Cc2ccc(-c3ncc(-c4ccc(-c5ccc(C(F)(F)F)cc5)cc4)cn3)cc2)C(=O)O)s1` [Compound 1355, (S)-2-(5-(tert-butyl)thiophene-2-carboxamido)-3-(4-(5-(4′-(trifluoromethyl)-[1,1′-biphenyl]-4-yl)pyrimidin-2-yl)phenyl)propanoic acid]: the 50% effective concentration (EC50) was less than 800 nM.
With `CC(C)(C)c1ccc(C(=O)N[C@@H](Cc2ccc(-c3ncc(-c4ccc(-c5ccc(OC(F)(F)F)cc5)cc4)cn3)cc2)C(=O)O)s1` [Compound 1356, (S)-2-(5-(tert-butyl)thiophene-2-carboxamido)-3-(4-(5-(4′-(trifluoromethoxy)-[1,1′-biphenyl]-4-yl)pyrimidin-2-yl)phenyl)propanoic acid] the figure was less than 800 nM; with `CC(C)(C)c1ccc(C(=O)N[C@@H](Cc2ccc(-c3ncc(-c4ccc([C@H]5CC[C@@H](C)CC5)cc4)cn3)cc2)C(=O)O)s1` [Compound 1357], 2500 to 5000 nM.
The same measure for `CC(C)(C)c1ccc(C(=O)N[C@@H](Cc2ccc(-c3ncc(-c4ccc([C@H]5CC[C@H](C)CC5)cc4)cn3)cc2)C(=O)O)s1` [Compound 1358]: 2500 to 5000 nM.
The same measure for `CC(C)c1ccc(-c2ccc(-c3cnc(-c4ccc(C[C@H](NC(=O)c5ccc(C(C)(C)C)s5)C(=O)O)cc4)nc3)c(F)c2)cc1` [Compound 1359]: 800 to 2500 nM.
Consider `CCCOc1ccc(-c2ccc(-c3cnc(-c4ccc(C[C@H](NC(=O)c5ccc(C(C)(C)C)s5)C(=O)O)cc4)nc3)c(F)c2)cc1` [Compound 1360], for which the EC50 was 2500 to 5000 nM.
With `CCCCc1ccc(-c2ccc(-c3cnc(-c4ccc(C[C@H](NC(=O)c5ccc(C(C)(C)C)s5)C(=O)O)cc4)nc3)c(F)c2)cc1` [Compound 1361] the figure was 800 to 2500 nM.
With `CC[C@H]1CC[C@@H](c2ccc(-c3cnc(-c4ccc(C[C@H](NC(=O)c5ccc(C(C)(C)C)s5)C(=O)O)cc4)nc3)c(F)c2)CC1` [Compound 1362], the EC50 was less than 800 nM.
With `CC[C@H]1CC[C@H](c2ccc(-c3cnc(-c4ccc(C[C@H](NC(=O)c5ccc(C(C)(C)C)s5)C(=O)O)cc4)nc3)c(F)c2)CC1` [Compound 1363] the figure was less than 800 nM.
With `CC(C)(C)c1ccc(C(=O)N[C@@H](Cc2ccc(-c3ncc(-c4ccc(-c5ccc(C(F)(F)F)cc5)cc4F)cn3)cc2)C(=O)O)s1` [Compound 1364] the figure was less than 800 nM.
The same measure for `CC(C)(C)c1ccc(C(=O)N[C@@H](Cc2ccc(-c3ncc(-c4ccc(-c5ccc(OC(F)(F)F)cc5)cc4F)cn3)cc2)C(=O)O)s1` [Compound 1365]: less than 800 nM.
Regarding `CC[C@H]1CC[C@H](c2ccc(-c3cnc(-c4ccc(C[C@H](NC(=O)c5ccc(C(C)(C)C)cc5)C(=O)O)cc4)nc3)cc2)CC1` [Compound 1366], the EC50 was less than 800 nM.
Turning to `CC[C@H]1CC[C@H](c2ccc(-c3cnc(-c4ccc(C[C@H](NC(=O)c5ccc(C(C)(C)C)nc5)C(=O)O)cc4)nc3)cc2)CC1` [Compound 1367], the EC50 was less than 800 nM.
The same measure for `CC[C@H]1CC[C@H](c2ccc(-c3cnc(-c4ccc(C[C@H](NC(=O)c5cnc(C(C)(C)C)nc5)C(=O)O)cc4)nc3)cc2)CC1` [Compound 1368]: less than 800 nM; for `CC[C@H]1CC[C@H](c2ccc(-c3cnc(-c4ccc(C[C@H](NC(=O)c5ccc(C(F)(F)F)s5)C(=O)O)cc4)nc3)cc2)CC1` [Compound 1369]: 800 to 2500 nM.
Regarding `CCc1ccc(C(=O)N[C@@H](Cc2ccc(-c3ncc(-c4ccc([C@H]5CC[C@H](CC)CC5)cc4)cn3)cc2)C(=O)O)cc1` [Compound 1370], the EC50 fell in the range of 800 to 2500 nM.
Take `CC[C@H]1CC[C@H](c2ccc(-c3cnc(-c4ccc(C[C@H](NC(=O)c5ccc(C)cc5)C(=O)O)cc4)nc3)cc2)CC1` [Compound 1371]: the EC50 was in the range of 800 to 2500 nM.
With `CCCc1ccc(C(=O)N[C@@H](Cc2ccc(-c3ncc(-c4ccc([C@H]5CC[C@H](CC)CC5)cc4)cn3)cc2)C(=O)O)cc1` [Compound 1372] the figure was 800 to 2500 nM.
The same measure for `CC[C@H]1CC[C@H](c2ccc(-c3cnc(-c4ccc(C[C@H](NC(=O)c5ccc(C(C)(C)C#N)s5)C(=O)O)cc4)nc3)cc2)CC1` [Compound 1373]: less than 800 nM; for `CC[C@H]1CC[C@H](c2ccc(-c3cnc(-c4ccc(C[C@H](NC(=O)c5ccc(C(F)(F)F)cc5)C(=O)O)cc4)nc3)cc2)CC1` [Compound 1374]: 800 to 2500 nM.
With `CCC(C)(C)c1ccc(C(=O)N[C@@H](Cc2ccc(-c3ncc(-c4ccc([C@H]5CC[C@H](CC)CC5)cc4)cn3)cc2)C(=O)O)cc1` [Compound 1375] the figure was 800 to 2500 nM.
`CC[C@H]1CC[C@H](c2ccc(-c3cnc(-c4ccc(C[C@H](NC(=O)c5ccc(C(C)=O)cc5)C(=O)O)cc4)nc3)cc2)CC1` [Compound 1376]: the EC50 was in the range of 800 to 2500 nM.
In the case of `CCCOc1ccc(C(=O)N[C@@H](Cc2ccc(-c3ncc(-c4ccc([C@H]5CC[C@H](CC)CC5)cc4)cn3)cc2)C(=O)O)cc1` [Compound 1377], the EC50 lay in the range of 800 to 2500 nM.
With `CC[C@H]1CC[C@H](c2ccc(-c3cnc(-c4ccc(C[C@H](NC(=O)c5cnn(C(C)(C)C)c5)C(=O)O)cc4)nc3)cc2)CC1` [Compound 1378] the figure was less than 800 nM; with `CC[C@H]1CC[C@H](c2ccc(-c3cnc(-c4ccc(C[C@H](NC(=O)c5ccc(S(C)(=O)=O)cc5)C(=O)O)cc4)nc3)cc2)CC1` [Compound 1379], less than 800 nM.
With `CC[C@H]1CC[C@H](c2ccc(-c3cnc(-c4ccc(C[C@H](NC(=O)c5ccc(N(C)C)cc5)C(=O)O)cc4)nc3)cc2)CC1` [Compound 1380] the figure was 800 to 2500 nM; with `CC[C@H]1CC[C@H](c2ccc(-c3cnc(-c4ccc(C[C@H](NC(=O)c5ccc(CC(C)C)s5)C(=O)O)cc4)nc3)cc2)CC1` [Compound 1381], 5000 to 10000 nM; with `CC[C@H]1CC[C@H](c2ccc(-c3cnc(-c4ccc(C[C@H](NC(=O)c5ccc(OC(C)C)cc5)C(=O)O)cc4)nc3)cc2)CC1` [Compound 1382], 800 to 2500 nM.
The same measure for `CC[C@H]1CC[C@H](c2ccc(-c3cnc(-c4ccc(C[C@H](NC(=O)c5ccc(CC(C)C)cc5)C(=O)O)cc4)nc3)cc2)CC1` [Compound 1383]: 800 to 2500 nM; for `CC[C@H]1CC[C@H](c2ccc(-c3cnc(-c4ccc(C[C@H](NC(=O)c5ccc(OC(F)(F)F)cc5)C(=O)O)cc4)nc3)cc2)CC1` [Compound 1384]: 800 to 2500 nM.
As for `CC[C@H]1CC[C@H](c2ccc(-c3cnc(-c4ccc(C[C@H](NC(=O)c5ccc(C)s5)C(=O)O)cc4)nc3)cc2)CC1` [Compound 1385], the EC50 fell in the range of 5000 to 10000 nM.
The same measure for `CC[C@H]1CC[C@H](c2ccc(-c3cnc(-c4ccc(C[C@H](NC(=O)c5ccc(Cl)cc5)C(=O)O)cc4)nc3)cc2)CC1` [Compound 1386]: 800 to 2500 nM; for `CC[C@H]1CC[C@H](c2ccc(-c3cnc(-c4ccc(C[C@H](NC(=O)c5ccc(C(C)C)cc5)C(=O)O)cc4)nc3)cc2)CC1` [Compound 1387]: less than 800 nM; for `CC[C@H]1CC[C@H](c2ccc(-c3cnc(-c4ccc(C[C@H](NC(=O)c5ccc(C(F)(F)F)nc5)C(=O)O)cc4)nc3)cc2)CC1` [Compound 1388]: 800 to 2500 nM.
Turning to `CC[C@H]1CC[C@H](c2ccc(-c3cnc(-c4ccc(C[C@H](NC(=O)c5ccc(C(C)C)s5)C(=O)O)cc4)nc3)cc2)CC1` [Compound 1389], the EC50 was less than 800 nM.
With `CCc1ccc(C(=O)N[C@@H](Cc2ccc(-c3ncc(-c4ccc([C@H]5CC[C@H](CC)CC5)cc4)cn3)cc2)C(=O)O)cn1` [Compound 1390] the figure was 5000 to 10000 nM; with `CC[C@H]1CC[C@H](c2ccc(-c3cnc(-c4ccc(C[C@H](NC(=O)c5cnc(C6CC6)nc5)C(=O)O)cc4)nc3)cc2)CC1` [Compound 1391], less than 800 nM; with `CC[C@H]1CC[C@H](c2ccc(-c3cnc(-c4ccc(C[C@@H](NC(=O)c5ccc(C(C)(C)C)s5)C(=O)O)cc4)nc3)cc2)CC1` [Compound 1392], 800 to 2500 nM.
With `CCCc1ccc(-c2ccc(-c3cnc(-c4ccc(C[C@H](NC(=O)c5ccc(C(C)(C)C)s5)C(=O)O)cc4)nc3)cc2)cc1` [Compound 1393] the figure was 800 to 2500 nM; with `CCCCc1ccc(-c2ccc(-c3cnc(-c4ccc(C[C@H](NC(=O)c5ccc(C(C)(C)C)s5)C(=O)N5CC(C(=O)O)C5)cc4)nc3)cc2)cc1` [Compound 1394], less than 800 nM; with `CC(C)c1ccc(-c2ccc(-c3cnc(-c4ccc(C[C@H](NC(=O)c5ccc(C(C)(C)C)s5)C(=O)N5CC(C(=O)O)C5)cc4)nc3)cc2)cc1` [Compound 1395], less than 800 nM.
With `CC(C)Oc1ccc(-c2ccc(-c3cnc(-c4ccc(C[C@H](NC(=O)c5ccc(C(C)(C)C)s5)C(=O)N5CC(C(=O)O)C5)cc4)nc3)c(F)c2)cc1` [Compound 1396], the EC50 is less than 800 nM.
With `CCCc1ccc(-c2ccc(-c3cnc(-c4ccc(C[C@H](NC(=O)c5ccc(CC)s5)C(=O)N5CC(C(=O)O)C5)cc4)nc3)c(F)c2)cc1` [Compound 1397] the figure was less than 800 nM.
With `CCCc1ccc(-c2ccc(-c3cnc(-c4ccc(C[C@H](NC(=O)c5ccc(C(C)C)s5)C(=O)N5CC(C(=O)O)C5)cc4)nc3)c(F)c2)cc1` [Compound 1398] the figure was less than 800 nM.
With `CCCc1ccc(-c2ccc(-c3cnc(-c4ccc(C[C@H](NC(=O)c5ccc(C(C)(C)C)cc5)C(=O)N5CC(C(=O)O)C5)cc4)nc3)c(F)c2)cc1` [Compound 1399] the figure was less than 800 nM.
`CCCc1ccc(-c2ccc(-c3cnc(-c4ccc(C[C@H](NC(=O)c5ccc(C(F)(F)F)cc5)C(=O)N5CC(C(=O)O)C5)cc4)nc3)c(F)c2)cc1` [Compound 1400]: the EC50 was less than 800 nM.
For the compound `CCCc1ccc(-c2ccc(-c3cnc(-c4ccc(C[C@H](NC(=O)C5CCC(C(C)(C)C)CC5)C(=O)N5CC(C(=O)O)C5)cc4)nc3)c(F)c2)cc1` (stereo partly drawn) [Compound 1401], the EC50 is less than 800 nM.
With `CCCc1ccc(-c2ccc(-c3cnc(-c4ccc(C[C@H](NC(=O)c5ccc(C(C)(C)CC)cc5)C(=O)N5CC(C(=O)O)C5)cc4)nc3)c(F)c2)cc1` [Compound 1402] the figure was less than 800 nM.
